Values of other authors, collected in US20120059599A1, “HYBRID FRAGMENT-LIGAND MODELING FOR C[…] COMPOUNDS” (UNIVERSITY OF LOUISVILLE, priority 2010, published 2012).

Legend:
[1] = system: Salmonella; conditions: reported in the CPDB
[2] = system: estrogen receptor; conditions: has been demonstrated
[3] = system: mammary; conditions: reported in the CPDB
[4] = has been demonstrated
[5] = system: humans; conditions: IARC
[6] = system: experimental animals; conditions: IARC

Row | SMILES | Salmonella mutagenicity [1] | estrogen receptor ligand [2] | mammary carcinogenicity [3] | genotoxic carcinogen [4] | evidence to determine carcinogenicity in humans [5] | evidence for carcinogenicity in experimental animals [6]
1 | CCNc1nc(Cl)nc(NC(C)C)n1 [Atrazine] | non-mutagen | – | – | – | – | –
2 | Cn1c(N)nc2ncc(-c3ccccc3)cc21 [PhIP, 2-amino-1-methyl-6-phenylimidazo[4,5-b]pyridine] | mutagen | estrogen receptor ligand | mammary carcinogen | genotoxic carcinogen | inadequate evidence | antiquated evidence
